# Source: patent US12281304B2, “Compositions and methods for treating and preventing muscular disorders and dystrophies, steroid side effects, and inflammation” (Children's National Medical Center, priority 2018, dated 2025)
# System: miRNAs in diaphragm muscle of mdx mice
# Experiment: qRT-PCR of individual miRNAs in diaphragm, validation set (4-month treatment, treadmill-run mdx mice)
# Type: in vivo, mouse
# Conditions: 6 months of age, prednisolone 5 mg/kg, vamorolone 45 mg/kg; for expression of the other seven inflammatory miRNAs: P≤0.05
# Text: Archival muscle samples (diaphragm) from two separate preclinical studies were obtained, with each trial showing a significant benefit from both prednisolone and vamorolone drug treatments (23). Prednisolone was used because it is the active form of prednisone, the current DMD standard of care. The first, “discovery set” of diaphragm muscles was from a prophylactic trial design where 2-week old (postnatal day 15) mdx or wild type control mice received oral dosing for 6 weeks with vehicle (cherry syrup), prednisolone (5 mg/kg), or vamorolone (15 mg/kg) as previously reported (23). The second, “validation set” of diaphragm muscles was from an extended trial in older mice where mdx or wild type mice were subjected to treadmill running to unmask mild phenotypes. Mice in this validation set were treated with either vehicle, prednisolone (5 mg/kg) or vamorolone (45 mg/kg) for four months beginning at two months of age (23). At the endpoint of each trial, diaphragm muscles were harvested and frozen in liquid nitrogen-cooled isopentane.
# Specific miRNAs were quantified in the validation set of samples using individual TaqMan assays specific for each miRNA (ThermoFisher; Carlsbad, Calif.) according to the manufacturer's protocol. Assay IDs used include 000468, 001346, 002455, 001280, 000528, 002352, 000464, 002509, and 002248. Total RNA was converted to cDNA using multiplexed RT primers and High Capacity cDNA Reverse Transcription Kit (ThermoFisher; Carlsbad, Calif.). The cDNA was pre-amplified using TaqMan PreAmp Master Mix (ThermoFisher; Carlsbad, Calif.). The miRNAs were then quantified using individual TaqMan assays on an ABI QuantStudio 7 real time PCR machine (Applied Biosystems; Foster City, Calif.).
# In the discovery set experiments, levels of each miRNA were quantified in TaqMan low-density arrays using ThermoFisher Cloud software with the Relative Quantification Application (ThermoFisher; Carlsbad, Calif.) tool. Data was analyzed by ANOVA with post-hoc comparison of each group to the mdx vehicle-treated group. […] A P-value of P≤0.05 was set as the significance threshold, without adjustment for multiple comparisons. To reduce false-positive discovery in this setting, an evidence-based approach was used to identify efficacy associated miRNAs where 1) results from the multiple groups were cross-referenced, and 2) all candidate miRNAs identified in this discovery set were then assayed in a separate validation set of mice. For the validation set experiments, levels of each individual miRNA were assayed in samples from a second, independent preclinical trial in adult mdx mice. Data from individual TaqMan Assays was quantified using QuantStudio Real-Time PCR version 1.3 software (Applied Biosystems; Foster City, Calif.). […]
SMILES,response of miR-301a to drug treatment,expression of the other seven inflammatory miRNAs
C[C@]12C=CC(=O)C=C1CC[C@@H]1[C@@H]2[C@@H](O)C[C@@]2(C)[C@H]1CC[C@]2(O)C(=O)CO [prednisolone],did not respond to drug treatment,significant decrease towards healthy wild type levels
C[C@@H]1C[C@H]2[C@@H]3CCC4=CC(=O)C=C[C@]4(C)C3=CC[C@]2(C)[C@@]1(O)C(=O)CO [vamorolone],did not respond to drug treatment,significant decrease towards healthy wild type levels
